Here are results for eleven compounds from ChEMBL document CHEMBL1201862, “PubChem BioAssay data set” (2004).

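Assay format: 96-well plates, 48-hour exposure. Here, GI50 denotes the concentration required for 50% inhibition of growth.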 Activity calls are given as the source filed them. Rule as the data show it: active = GI50 up to about 1.1 µM and inactive = higher.

Some test systems named below: ACHN; 786-0; SNB-19; CCRF-CEM; MCF7; Malme-3M; SK-MEL-28; NCI-H460; CAKI-1; SF-539; A549; T47D; SNB-75; K562; U-251; OVCAR-5; HCT-116; SF-268; SN12C; NCI-H226.
Holding throughout (assay): NCI anticancer screen, dose series, 48 h

Take `CC(=O)C(C(C)=O)[C@H]1OC(C)(C)O[C@H]1[C@H]1COC(C)(C)O1`: the GI50 with ACHN was 57.5 µM (inactive); with 786-0 it was 51.3 µM (inactive); in the assay on SNB-19 it was 41.6 µM (inactive); with CCRF-CEM, 36.9 µM (inactive); with MCF7, 35.6 µM (inactive); with Malme-3M, > 100 µM (inactive). The GI50 is 97.3 µM (inactive) in the assay with SK-MEL-28; 32.4 µM (inactive) with NCI-H460; 73.6 µM (inactive) with CAKI-1; 18.7 µM (inactive) in the assay on SF-539; 42.6 µM (inactive) with A549; 89.1 µM (inactive) with T47D. The GI50 with SNB-75 was 42.2 µM (inactive); in the assay on K562 it was 34.4 µM (inactive); in the assay with U-251, 24.9 µM (inactive); in the assay on OVCAR-5 it was > 100 µM (inactive); in the assay on HCT-116, 45.2 µM (inactive); in the assay on SF-268, 63.8 µM (inactive). In the assay with SN12C, the GI50 was 29.6 µM (inactive).
For the compound `Cc1ccc(S(=O)(=O)NC(=O)NC(CCC(N)=O)C(=O)O)cc1` (stereo unspecified), the GI50 in the assay on ACHN, in the assay on 786-0, in the assay with SNB-19, in the assay on CCRF-CEM, in the assay with MCF7 and with Malme-3M was > 100 µM (inactive) throughout. In addition, the GI50 in the assay on SK-MEL-28, with NCI-H460, in the assay with SF-539, with A549, in the assay on T47D and in the assay on SNB-75 was > 100 µM (inactive) in each case. The GI50 in the assay on K562, in the assay with U-251, in the assay with OVCAR-5, in the assay with HCT-116, with SF-268 and with SN12C was > 100 µM (inactive) throughout.
On to `COc1cccc(-c2nc(-c3cnccn3)n(Cc3ccccc3)n2)c1`, for which the GI50 with 786-0 was 69.5 µM (inactive); in the assay on SNB-19, 90.4 µM (inactive); in the assay on CCRF-CEM, > 100 µM (inactive); in the assay on MCF7, > 100 µM (inactive); with SK-MEL-28 it was 86.1 µM (inactive); with NCI-H460, > 100 µM (inactive). For the same compound, the GI50 in the assay with SF-539 was 85.1 µM (inactive); with A549, > 100 µM (inactive); in the assay with T47D it was > 100 µM (inactive); in the assay on SNB-75, 24.4 µM (inactive); in the assay with K562, > 100 µM (inactive); in the assay on U-251 it was > 100 µM (inactive). For the same compound, the GI50 in the assay with OVCAR-5, with HCT-116, with SF-268 and with SN12C was > 100 µM (inactive) throughout.
On to `C/C(=N\n1c(Cc2ccccc2)n[nH]c1=O)c1ccccc1`, for which the GI50 in the assay on ACHN, with 786-0, in the assay on SNB-19, in the assay on NCI-H226, in the assay with CCRF-CEM and with MCF7 was > 100 µM (inactive) each time. Also, the GI50 in the assay on Malme-3M, in the assay on SK-MEL-28, in the assay with CAKI-1, in the assay on SF-539, in the assay on A549 and with T47D was > 100 µM (inactive) in each case. For the same compound, the GI50 in the assay on K562, in the assay with U-251, with OVCAR-5, with HCT-116, in the assay on SF-268 and with SN12C was > 100 µM (inactive) throughout.
Take `COc1ccc2c3c1O[C@H]1[C@@H](O)CC[C@@]4(O)[C@@H](C2)N(C)CC[C@]314`: the GI50 with ACHN, in the assay on 786-0, in the assay on SNB-19, with NCI-H226, in the assay on CCRF-CEM and in the assay on MCF7 was > 100 µM (inactive) in each case. For the same compound, the GI50 in the assay on Malme-3M, in the assay with SK-MEL-28, with CAKI-1, in the assay with SF-539, with A549 and in the assay on T47D was > 100 µM (inactive) throughout. The GI50 in the assay with K562, in the assay on U-251, with OVCAR-5, in the assay with HCT-116, with SF-268 and in the assay on SN12C was > 100 µM (inactive) throughout.
Turning to `CC(=O)N1N=C(c2cc(C)ccc2O)CC1c1cccc(Cl)c1` (stereo unspecified), the GI50 in the assay on ACHN is 16.1 µM (inactive); in the assay with 786-0, 21.7 µM (inactive); in the assay on SNB-19, 6.08 µM (inactive); in the assay with NCI-H226, 16.1 µM (inactive); in the assay on CCRF-CEM, 13.4 µM (inactive); with MCF7 it was 5.79 µM (inactive). Further, the GI50 in the assay on Malme-3M is 6.93 µM (inactive); with NCI-H460 it was 8.85 µM (inactive); in the assay with CAKI-1 it was 27.3 µM (inactive); in the assay with SF-539, 19.2 µM (inactive); in the assay with A549, 11.8 µM (inactive); with T47D it was 23.1 µM (inactive). The GI50 in the assay with K562 was 4.05 µM (inactive); in the assay with U-251, 13.8 µM (inactive); in the assay on OVCAR-5 it was 30.1 µM (inactive); in the assay with HCT-116, 13.8 µM (inactive); with SF-268, 8.55 µM (inactive); in the assay with SN12C it was 17.5 µM (inactive).
For `C[C@]12CCC3c4ccc(O)cc4CC[C@H]3C1CC(=O)NC2=O` (stereo partly specified), the GI50 in the assay on ACHN, in the assay on 786-0, with SNB-19, in the assay with NCI-H226, in the assay with CCRF-CEM and in the assay with MCF7 was > 10 µM (inactive) each time. In addition, the GI50 in the assay with Malme-3M, in the assay with SK-MEL-28, with NCI-H460, in the assay on CAKI-1, in the assay with SF-539 and in the assay with A549 was > 10 µM (inactive) in each case. Besides, the GI50 with T47D, in the assay on K562, with U-251, with OVCAR-5, in the assay on HCT-116 and in the assay on SF-268 was > 10 µM (inactive) each time. The GI50 with SN12C is > 10 µM (inactive).
For `Cc1ccc(OCC2CO2)c(Br)c1` (stereo unspecified), the GI50 with ACHN was 5.5 µM (inactive); in the assay on 786-0 it was 19.5 µM (inactive); with SNB-19, 41.3 µM (inactive); in the assay on NCI-H226, 15.9 µM (inactive); in the assay on CCRF-CEM it was 27.9 µM (inactive); with MCF7, 14.7 µM (inactive). The GI50 is 56.5 µM (inactive) in the assay with Malme-3M; 27.5 µM (inactive) in the assay with SK-MEL-28; 21.9 µM (inactive) in the assay with NCI-H460; 33.7 µM (inactive) in the assay on CAKI-1; 15 µM (inactive) in the assay with SF-539; 20.3 µM (inactive) in the assay on A549. Also, the GI50 in the assay with T47D was 63.1 µM (inactive); in the assay on K562 it was 22.3 µM (inactive); with U-251 it was 15.2 µM (inactive); with OVCAR-5, 17.5 µM (inactive); in the assay on HCT-116 it was 16.1 µM (inactive); with SF-268, 13.1 µM (inactive). Further, the GI50 in the assay on SN12C was 18.6 µM (inactive).
Consider `O=c1cc(-c2ccccc2F)[nH]c2ccc(N3CCCC3)cc12`, for which the GI50 was < 0.001 µM (active) in the assay on ACHN; 0.0442 µM (active) in the assay with 786-0; 0.0214 µM (active) in the assay on SNB-19; 0.0461 µM (active) in the assay on CCRF-CEM; 0.00745 µM (active) in the assay on MCF7; > 100 µM (inactive) in the assay on Malme-3M. The GI50 in the assay on SK-MEL-28 was 0.465 µM (active); in the assay on NCI-H460, 0.0417 µM (active); in the assay with CAKI-1, < 0.001 µM (active); in the assay with SF-539, < 0.001 µM (active); with A549 it was 0.0504 µM (active); in the assay on T47D, > 10 µM (inactive). Further, the GI50 in the assay on SNB-75 is 63.2 µM (inactive); in the assay with K562, 0.0257 µM (active); in the assay with U-251 it was 0.0381 µM (active); in the assay with OVCAR-5, 0.1 µM (active); with SF-268, 0.0363 µM (active); in the assay on SN12C, 0.17 µM (active).
In the case of `C[C@]12CC[C@H](OC3OC(CO)C(O)C(O)C3O)C[C@H]1CC[C@@H]1[C@@H]2CC[C@]2(C)[C@@H](C3=CCOC3=O)CC[C@]12O` (stereo partly specified) [ACTODIGIN], the GI50 with ACHN was 14.5 µM (inactive); in the assay with 786-0 it was > 100 µM (inactive); in the assay with MCF7 it was 10.4 µM (inactive); in the assay on Malme-3M, 2.09 µM (inactive); in the assay with SK-MEL-28 it was 22.5 µM (inactive); in the assay with SF-539 it was 0.447 µM (active). Also, the GI50 with A549 was 15.7 µM (inactive); in the assay with T47D, > 100 µM (inactive); with SNB-75, 6.84 µM (inactive); in the assay with K562 it was 21.5 µM (inactive); with U-251 it was 4.73 µM (inactive); in the assay on OVCAR-5, > 50 µM (inactive). Moreover, the GI50 with HCT-116 was 15.7 µM (inactive); in the assay on SF-268 it was 8.2 µM (inactive); with SN12C, 20.1 µM (inactive).
Take `OC1(c2ccccc2)CCCCCCCCC(O)(c2ccccc2)CCCCCCCC1` (stereo unspecified): the GI50 with ACHN, with 786-0, in the assay with SNB-19, in the assay on MCF7, with Malme-3M and with SK-MEL-28 was > 100 µM (inactive) throughout. Also, the GI50 with NCI-H460, in the assay with CAKI-1, in the assay with SF-539, with A549, in the assay on T47D and in the assay with SNB-75 was > 100 µM (inactive) in each case. Moreover, the GI50 in the assay with K562, with U-251, with OVCAR-5, in the assay with HCT-116, in the assay with SF-268 and with SN12C was > 100 µM (inactive) throughout.
